# Patent US12251382B2, “Substituted amino-pyrimidine compound for use in a method for treatment and prevention of multiple sclerosis” (Merck Patent GmbH, priority 2018, dated 2025)
# Entries after “also recorded” stand apart in the source; their conditions may differ.
# Legend:
# [1] = Phase I Holter ECG assessment and concentration-QTcF analysis; type: in vivo, human; settings: for Mean ΔΔQTcF: 100 mg dose group (n=6); for Predicted mean ΔΔQTcF: linear mixed model
# Protocol: Holter ECG recordings of 24 h duration were performed on Day 1 in Parts 1 and 2 of the study using digital 12-lead Holter devices (GI M12R, Manlius, N.Y.) and analyzed in the Quintiles central ECG laboratory. Ten second 12-lead ECGs were extracted in triplicate using Antares ECG extraction software (version 2.15.1.0, AMPS-LLC, New York, N.Y.) for each PK time point (predose and 0.25, 0.5, 1.0, 1.5, 2, 2.5, 3, 4, 5, 6, 8, 12, 16, 24 h postdose) within a −5 to 0 minute window prior to and a 5 minute window after each sampling time point. The quality of extracted ECG snapshots was checked by a Holter Associate/Specialist using the Anatares quality control review interface. The mean QT and RR values from the triplicate ECGs were used to calculate QTcF for each time point.
# The dataset consisted of Day 1 ECG and PK data from all subjects in Parts 1 and 2 of the study.
# Model derived predicted mean ΔΔQTcF was calculated for the geometric mean Cmax of each dose cohort. Two-sided 90% CIs of the estimate were determined using bootstrapping (1,000 resamples). By-time point analysis of actual values and change from baseline was performed for QTcF. Mean ΔΔQTcF with an associated 90% CI was summarized by time point for each dose cohort.
# [2] = Phase II RMS study: safety (adverse events, laboratory) over 24 weeks; type: in vivo
# Protocol: The assessing Investigator and central MRI reader were treatment blinded.
# Safety profile of the IMP was assessed through the recording, reporting and analysis of baseline medical conditions; AEs; physical examination findings including vital signs, ECGs, and laboratory tests (including Ig and subclass concentration and B, NK, and T cell counts). Comprehensive assessment of any apparent toxicity experienced by each subject was performed from the time of giving informed consent and throughout the trial. The Investigator was to report any AEs, whether observed by the Investigator or reported by the subject.
# Adverse Event: An AE was any untoward medical occurrence in a subject or clinical investigation subject administered a pharmaceutical product, regardless of causal relationship with this treatment. An AE could therefore be any unfavorable and unintended sign (including an abnormal laboratory finding), symptom, or disease temporally associated with the use of a medicinal product, whether or not considered related to the medicinal product.
# The Investigator was required to grade the severity or toxicity of each AE. Investigators referenced the National Cancer Institute-Common Terminology Criteria for AEs (NCI-CTCAE), Version 4.03 (publication date: 14 Jun. 2010) a descriptive terminology provided in the Manual of Procedures that can be used for AE reporting.
# A general grading (severity/intensity; hereafter referred to as severity) scale was provided at the beginning of the above referenced document, and specific event grades were also provided. Only if a particular AE's severity was not specifically graded by the guidance document, then the Investigator was to use the general NCI-CTCAE definitions of Grade 1 through Grade 5 following his or her best medical judgment. The 5 general grades are: • Grade 1 or Mild • Grade 2 or Moderate • Grade 3 or Severe • Grade 4 or Life-threatening • Grade 5 or Death.
# Serious Adverse Events: An SAE is any untoward medical occurrence that at any dose: • Results in death. • Is life-threatening. (Note: The term “life-threatening” refers to an event in which the subject is at risk of death at the time of the event, not an event that hypothetically might have caused death if it was more severe) • Requires inpatient hospitalization or prolongs an existing hospitalization, except in the case of hospitalizations due to protocol-defined relapses. • Results in persistent or significant disability or incapacity. • Is a congenital anomaly or birth defect. • Is otherwise considered to be medically important.
# [3] = system: RA and SLE models; settings: in vivo; cited from earlier work
# [4] = Phase I Part 2: plasma pharmacokinetics Day 1 and Day 14 of once daily dosing; type: in vivo, human; settings: for MRT: human, plasma, oral
# Protocol: To test dose proportionality, PK parameters were analyzed graphically as AUC/dose and Cmax/dose and via a power model (PK parameter=α*dose^β) approach with log-transformed PK parameters as the dependent variable and log-transformed dose as the independent variable.
# [5] = multiple-dose study Day 1, 25 mg, geometric mean
# [6] = multiple-dose study Day 1, 75 mg, geometric mean
# [7] = multiple-dose study Day 1, 200 mg, geometric mean
# [8] = multiple-dose study Day 14, 25 mg once daily, geometric mean
# [9] = multiple-dose study Day 14, 75 mg once daily, geometric mean
# [10] = multiple-dose study Day 14, 200 mg once daily, geometric mean
smiles,measurement,setting,value
"C=CC(=O)N1CCC(CNc2ncnc(N)c2-c2ccc(Oc3ccccc3)cc2)CC1 [Evobrutinib, 1-(4-(((6-amino-5-(4-phenoxyphenyl)pyrimidin-4-yl)amino)methyl)piperidin-1-yl)prop-2-en-1-one]",Geometric mean Cmax,"[1]; 25 mg dose group, Day 1, Parts 1 and 2",86.48 ng/mL
same,Geometric mean Cmax,"[1]; 25 mg dose group, Day 1, Parts 1 and 2, listed as evobrutinib",86.5 ng/mL
same,Geometric mean Cmax,"[1]; 50 mg dose group, Day 1",233.9 ng/mL
same,Geometric mean Cmax,"[1]; 75 mg dose group, Day 1",253.9 ng/mL
same,Mean ΔΔQTcF,[1]; 6 h post-dose,7.1 ms
same,Mean ΔΔQTcF,[1]; 8 h post-dose,5.6 ms
same,Mean ΔΔQTcF,[1]; 12 h post-dose,7.2 ms
same,Geometric mean Cmax,"[1]; 100 mg dose group, Day 1",308.6 ng/mL
same,Geometric mean Cmax,"[1]; 200 mg dose group, Day 1, Parts 1 and 2",689.2 ng/mL
same,Geometric mean Cmax,"[1]; 350 mg dose group, Day 1",845.9 ng/mL
same,Geometric mean Cmax,"[1]; 500 mg dose group, Day 1",1512.3 ng/mL
same,Geometric mean Cmax,"[1]; 500 mg dose group, Day 1, listed as evobrutinib","1,512 ng/ml"
same,Subjects with change from baseline in QTcF between 30 ms and 60 ms,"[1]; 2 of 81 subjects, both in the 200 mg dose group",2.5%
same,Change from baseline in QTcF,[1]; all ECGs,≤ 60 ms
same,Mean ΔΔQTcF over the range of doses evaluated,"[1]; all time points, with the exception of the 100 mg dose group",< 5 ms
same,Absolute QTcF value,"[1]; any dose group, any time point",≤ 450 ms
same,Predicted mean ΔΔQTcF,[1]; at geometric mean Cmax of 25 mg dose group,-0.78 ms
same,Predicted mean ΔΔQTcF,[1]; at geometric mean Cmax of 50 mg dose group,-0.82 ms
same,Predicted mean ΔΔQTcF,[1]; at geometric mean Cmax of 75 mg dose group,-0.82 ms
same,Predicted mean ΔΔQTcF,[1]; at geometric mean Cmax of 100 mg dose group,-0.84 ms
same,Predicted mean ΔΔQTcF,[1]; at geometric mean Cmax of 200 mg dose group,-0.94 ms
same,Predicted mean ΔΔQTcF,[1]; at geometric mean Cmax of 350 mg dose group,-0.98 ms
same,Predicted mean ΔΔQTcF,[1]; at geometric mean Cmax of 500 mg dose group,-1.16 ms
same,"Change from baseline in HR, PR and QRS values post-dose",[1]; categorical analysis,no clinically significant change from baseline
same,Slope of the relationship between placebo-adjusted ΔQTcF and concentration,"[1]; linear mixed-effects model, P=0.86",−0.00027 ms/ng per mL
same,Subjects with treatment-emergent T wave morphological abnormalities,[1]; one in the 50 mg and one in the 100 mg dose group,two
same,Effect on QTcF / exposure-effect relationship,[1]; single doses up to 500 mg,did not prolong QTcF; also recorded: No evidence of a significant exposure-effect relationship; also recorded: no prolongation of QTcF
same,Hysteresis between plasma concentration and ΔQTcF,[1]; statistical test based on ΔΔQTcF,no evidence of hysteresis
same,Deaths or additional emerging safety signals,[2]; 24 weeks,no deaths or additional emerging safety signals
same,TEAEs of grade 4 or 5,"[2]; human, in vivo, 24 weeks",no TEAEs of grade 4 or 5
same,"Hematological abnormalities, such as lymphopenia",[2]; in vivo,"None of the three evobrutinib doses were associated with hematological abnormalities, such as lymphopenia"
same,Hy's Law cases among Grade 3 transaminase elevations,[2]; in vivo,no Hy's Law cases
same,Infection rates versus placebo,[2]; in vivo,lower than those with placebo
same,Activity in RA and SLE models,[3],robust activity
same,Dose proportionality of AUC and Cmax,"[4]; 25-500 mg single dose, 25-200 mg once daily multiple dose",demonstrated following multiple dosing of 25-200 mg; also recorded: dose-proportional over a 25-500 mg single-dose range and a 25-200 mg once daily multiple-dose range
same,Time dependency of PK,[4]; 14 days repeated daily dosing,no time dependency
same,MRT,"[4]; 25 mg, multiple-dose study Day 1, 25 mg, geometric mean",1.66 h
same,MRT,"[4]; 25 mg, multiple-dose study Day 14, 25 mg once daily, geometric mean",1.81 h
same,MRT,"[4]; 75 mg, multiple-dose study Day 1, 75 mg, geometric mean",1.67 h
same,MRT,"[4]; 75 mg, multiple-dose study Day 14, 75 mg once daily, geometric mean",1.79 h
same,MRT,"[4]; 200 mg, multiple-dose study Day 1, 200 mg, geometric mean",1.72 h
same,MRT,"[4]; 200 mg, multiple-dose study Day 14, 200 mg once daily, geometric mean",1.92 h
same,AUC0−∞,[4]; [5],123 ng·h/mL
same,Cmax,[4]; [5],99.7 ng/mL
same,T1/2,[4]; [5],1.70 h
same,AUC0−∞,[4]; [6],325 ng·h/mL
same,CL/F,[4]; [6],3850 mL/min
same,Cmax,[4]; [6],254 ng/mL
same,T1/2,[4]; [6],1.86 h
same,AUC0−∞,[4]; [7],1110 ng·h/mL
same,Cmax,[4]; [7],797 ng/mL
same,T1/2,[4]; [7],2.49 h
same,AUC0−24h,[4]; [8],126 ng·h/mL
same,Cmax,[4]; [8],80.4 ng/mL
same,T1/2,[4]; [8],1.59 h
same,AUC0−24h,[4]; [9],345 ng·h/mL
same,Cmax,[4]; [9],252 ng/mL
same,T1/2,[4]; [9],2.29 h
same,AUC0−24h,[4]; [10],"1,210 ng * h/mL"
same,Cmax,[4]; [10],782 ng/mL
same,T1/2,[4]; [10],3.62 h
same,Accumulation with multiple dosing,"[4]; once daily, 14 days",no accumulation with multiple dosing; also recorded: without accumulation after multiple dosing
same,t½ after multiple dosing,[4]; range across 25-200 mg once daily,1.6 to 3.6 h
